Assay results reported in ChEMBL document CHEMBL4483862, “Open-source discovery of chemical leads for next-generation chemoprotective antimalarials” (2018).

Test system: Plasmodium berghei
Experiment: Luciferase/luciferin-expressing antifolate-resistant parasites were used to infect a culture of HepG2 cells that were pre-incubated with compounds. Infected hepatocytes emit light due to the luciferase reaction. Assay results are presented as the percent inhibition of light emission compared to control. […]
Format: functional
Settings: sporozoite; for IC90: read-out: LUCIFERASE INFECTION ASSAY - IC90

SMILES | IC90 [µM] | other results
NC(Cc1ccc(F)cc1)c1csc(Nc2ncccn2)n1 (configuration not stated) | 4.09 | IC50 (HEPG2TOX_HILL_SLOPE 5.82, HEPG2TOX_R_SQUARED 0.311, PBLUC_HILL_SLOPE 16.5, PBLUC_R_SQUARED 0.556, read-out: LUCIFERASE INFECTION ASSAY - IC50): 3.58 µM
Cc1[nH]n(-c2cccc(C(F)(F)F)c2)c(=O)c1-c1cccc(Cl)c1 | > 9.36 | IC50 (HEPG2TOX_HILL_SLOPE 5.8, HEPG2TOX_R_SQUARED 0.928, PBLUC_HILL_SLOPE 3.11, PBLUC_R_SQUARED 0.843, read-out: LUCIFERASE INFECTION ASSAY - IC50): 6.26 µM
CCOC(=O)c1c(C)[nH]c(/C(C)=N/Nc2nc3ccccc3[nH]2)c1C | > 10 | IC50 (HEPG2TOX_HILL_SLOPE 6.05, HEPG2TOX_R_SQUARED 0.279, PBLUC_HILL_SLOPE 4.56, PBLUC_R_SQUARED 0.397, read-out: LUCIFERASE INFECTION ASSAY - IC50): 8.41 µM
Cc1ccc(C)c(-c2nn(C(C)C(=O)Nc3cc(C)on3)c(=O)c3ccccc23)c1 (configuration not stated) | 3.83 | IC50 (HEPG2TOX_HILL_SLOPE 5.97, HEPG2TOX_R_SQUARED 0.339, PBLUC_HILL_SLOPE 3.63, PBLUC_R_SQUARED 0.528, read-out: LUCIFERASE INFECTION ASSAY - IC50): 2.09 µM
CCOc1c(Cl)cc(C2CC(=O)N(Cc3ccccc3)c3nc4ccccc4n32)cc1OC (configuration not stated) | > 10 | IC50 (HEPG2TOX_HILL_SLOPE 5.74, HEPG2TOX_R_SQUARED 0.547, PBLUC_HILL_SLOPE 2.97, PBLUC_R_SQUARED 0.551, read-out: LUCIFERASE INFECTION ASSAY - IC50): 5.06 µM
O=C(CC(=O)Nc1ccc(Cl)cn1)Nc1ccc(Cl)c(Cl)c1 | 8.05 | IC50 (HEPG2TOX_HILL_SLOPE 5.65, HEPG2TOX_R_SQUARED 0.964, PBLUC_HILL_SLOPE 4.27, PBLUC_R_SQUARED 0.168, read-out: LUCIFERASE INFECTION ASSAY - IC50): 4.81 µM
O=C(NNC(=S)Nc1cccc(C(F)(F)F)c1)c1cccn1-c1ccc(F)cc1 | > 7.81 | IC50 (HEPG2TOX_HILL_SLOPE 5.96, HEPG2TOX_R_SQUARED 0.739, PBLUC_HILL_SLOPE 1.03, PBLUC_R_SQUARED 0.767, read-out: LUCIFERASE INFECTION ASSAY - IC50): > 7.81 µM
CCn1nnc2cc(C(=O)Nc3cccc(Cl)c3N3CCOCC3)ccc21 | > 10 | IC50 (HEPG2TOX_HILL_SLOPE 5.65, HEPG2TOX_R_SQUARED 0.159, PBLUC_HILL_SLOPE 1.72, PBLUC_R_SQUARED 0.0547, read-out: LUCIFERASE INFECTION ASSAY - IC50): 5.31 µM
COc1cc(OC)cc(-c2cnc3cnc(-c4ccc(CO)cc4)cn23)c1 | > 9.13 | IC50 (HEPG2TOX_HILL_SLOPE 5.84, HEPG2TOX_R_SQUARED 0.257, PBLUC_HILL_SLOPE 9, PBLUC_R_SQUARED 0.405, read-out: LUCIFERASE INFECTION ASSAY - IC50): 7.72 µM
C(=N\Nc1nc2ccccc2[nH]1)/c1sc(N2CCCCC2)nc1-c1cccs1 | > 10 | IC50 (HEPG2TOX_HILL_SLOPE 5.76, HEPG2TOX_R_SQUARED 0.476, PBLUC_HILL_SLOPE 1.87, PBLUC_R_SQUARED 0.581, read-out: LUCIFERASE INFECTION ASSAY - IC50): 6.38 µM
COc1ccc(-c2ccnc3n[nH]c(-c4ccc5c(c4)OCO5)c23)cc1OC | 4.36 | IC50 (HEPG2TOX_HILL_SLOPE 5.74, HEPG2TOX_R_SQUARED 0.837, PBLUC_HILL_SLOPE 9.49, PBLUC_R_SQUARED 0.381, read-out: LUCIFERASE INFECTION ASSAY - IC50): 3.46 µM
CC(C)(C)c1cc(C(=O)Nc2cc(-c3cccs3)nn2-c2ccc(F)cc2)n(Cc2ccccc2)n1 | > 6.61 | IC50 (HEPG2TOX_HILL_SLOPE 6.06, HEPG2TOX_R_SQUARED 0.212, read-out: LUCIFERASE INFECTION ASSAY - IC50): > 6.61 µM
Cc1sc2ncnc(NC(C)c3ccc(S(C)(=O)=O)cc3)c2c1C (configuration not stated) | > 10 | IC50 (HEPG2TOX_HILL_SLOPE 5.66, HEPG2TOX_R_SQUARED 0.483, PBLUC_HILL_SLOPE 1.68, PBLUC_R_SQUARED 0.334, read-out: LUCIFERASE INFECTION ASSAY - IC50): 6.13 µM
CNc1nc2cnc(Nc3cccc(Oc4ccccc4)c3)cc2n1-c1ccccc1 | > 10 | IC50 (HEPG2TOX_HILL_SLOPE 5.82, HEPG2TOX_R_SQUARED 0.501, PBLUC_HILL_SLOPE 8.19, PBLUC_R_SQUARED 0.453, read-out: LUCIFERASE INFECTION ASSAY - IC50): 8.37 µM
O=C(Nc1ccccc1)Nc1nc2ccc([N+](=O)[O-])cc2s1 | 7.31 | IC50 (HEPG2TOX_HILL_SLOPE 6.06, HEPG2TOX_R_SQUARED 0.204, PBLUC_HILL_SLOPE 4.24, PBLUC_R_SQUARED 0.473, read-out: LUCIFERASE INFECTION ASSAY - IC50): 4.36 µM
Cc1cccc(COc2cccc(C(=O)N3CCC(C(=O)NCc4ccccc4)CC3)c2)c1 | > 10 | IC50 (HEPG2TOX_HILL_SLOPE 5.74, HEPG2TOX_R_SQUARED 0.455, read-out: LUCIFERASE INFECTION ASSAY - IC50): > 10 µM

SMILES | IC90 [µM] | other results
COCCc1ccc(-c2csc(NC(=O)Cc3c[nH]c4ccccc34)n2)cc1 | > 10 | IC50 (HEPG2TOX_HILL_SLOPE 5.8, HEPG2TOX_R_SQUARED 0.844, read-out: LUCIFERASE INFECTION ASSAY - IC50): > 10 µM
CC1CCCN(C(=O)COc2ccc(-c3nc4ccccc4s3)cc2)C1 (configuration not stated) | > 10 | IC50 (HEPG2TOX_HILL_SLOPE 6.02, HEPG2TOX_R_SQUARED 0.809, PBLUC_HILL_SLOPE 2.74, PBLUC_R_SQUARED 0.285, read-out: LUCIFERASE INFECTION ASSAY - IC50): 6.51 µM
CCCNC(=O)c1c(NC(=O)c2ccc(F)cc2F)nc2ccc(C)cn12 | 3.51 | IC50 (HEPG2TOX_HILL_SLOPE 5.63, HEPG2TOX_R_SQUARED 0.519, PBLUC_HILL_SLOPE 14, PBLUC_R_SQUARED 0.432, read-out: LUCIFERASE INFECTION ASSAY - IC50): 2.99 µM
c1cncc(-c2nc(NCc3ccnc(N4CCCC4)c3)c3ccccc3n2)c1 | > 10 | IC50 (HEPG2TOX_HILL_SLOPE 5.98, HEPG2TOX_R_SQUARED 0.222, PBLUC_HILL_SLOPE 14.9, PBLUC_R_SQUARED 0.594, read-out: LUCIFERASE INFECTION ASSAY - IC50): 9.31 µM
CC(C)(C)c1cc2ncc(S(=O)(=O)c3ccc(Cl)cc3)c(N)n2n1 | > 9.04 | IC50 (HEPG2TOX_HILL_SLOPE 5.77, HEPG2TOX_R_SQUARED 0.0253, read-out: LUCIFERASE INFECTION ASSAY - IC50): > 9.04 µM
Cc1cccn2c(=O)cc(CN3C(=O)NC(C)(c4ccc(F)cc4)C3=O)nc12 (configuration not stated) | > 2 | IC50 (HEPG2TOX_HILL_SLOPE 5.95, HEPG2TOX_R_SQUARED 0.496, PBLUC_HILL_SLOPE 2.16, PBLUC_R_SQUARED 0.177, read-out: LUCIFERASE INFECTION ASSAY - IC50): 1.96 µM
COc1ccc(-c2cc(NC(=O)c3ccc(OCc4c(C)noc4C)cc3)ccc2OC)cc1 | > 10 | IC50 (HEPG2TOX_HILL_SLOPE 5.81, HEPG2TOX_R_SQUARED 0.572, PBLUC_HILL_SLOPE 1.68, PBLUC_R_SQUARED 0.219, read-out: LUCIFERASE INFECTION ASSAY - IC50): > 10 µM
O=C(Nc1ccc2nc(Cc3ccccc3)nn2c1)NC1CCCCC1 | 3.6 | IC50 (HEPG2TOX_HILL_SLOPE 5.83, HEPG2TOX_R_SQUARED 0.978, PBLUC_HILL_SLOPE 13.4, PBLUC_R_SQUARED 0.389, read-out: LUCIFERASE INFECTION ASSAY - IC50): 3.05 µM
O=C1C=C(c2ccccc2)C(=O)N1Nc1ccc(Cl)cc1Cl | > 9.9 | IC50 (HEPG2TOX_HILL_SLOPE 5.8, HEPG2TOX_R_SQUARED 0.44, PBLUC_HILL_SLOPE 7.31, PBLUC_R_SQUARED 0.6, read-out: LUCIFERASE INFECTION ASSAY - IC50): 9.05 µM
c1cnc2ccc(-c3cnc4cnc(-c5ccsc5)cn34)cc2c1 | > 10 | IC50 (HEPG2TOX_HILL_SLOPE 5.76, HEPG2TOX_R_SQUARED 0.0288, PBLUC_HILL_SLOPE 1.24, PBLUC_R_SQUARED 0.576, read-out: LUCIFERASE INFECTION ASSAY - IC50): 3.87 µM
CCOc1cc(/C=C(/C(=O)NCc2ccc(Cl)cc2)c2nc3ccccc3[nH]2)ccc1OC | > 10 | IC50 (HEPG2TOX_HILL_SLOPE 5.77, HEPG2TOX_R_SQUARED 0.35, PBLUC_HILL_SLOPE 0.685, PBLUC_R_SQUARED 0.126, read-out: LUCIFERASE INFECTION ASSAY - IC50): > 10 µM
CC(C)(C)c1cc(NC(=O)Cn2cnc3scc(-c4ccccc4)c3c2=O)on1 | > 10 | IC50 (HEPG2TOX_HILL_SLOPE 6.06, HEPG2TOX_R_SQUARED 0.374, PBLUC_HILL_SLOPE 1.95, PBLUC_R_SQUARED 0.0898, read-out: LUCIFERASE INFECTION ASSAY - IC50): > 10 µM
Cc1cc(NCc2cccc(C(F)(F)F)c2)nc(N)n1 | > 10 | IC50 (HEPG2TOX_HILL_SLOPE 5.66, HEPG2TOX_R_SQUARED 0.531, PBLUC_HILL_SLOPE 2.77, PBLUC_R_SQUARED 0.624, read-out: LUCIFERASE INFECTION ASSAY - IC50): 5.15 µM
CCOC(=O)c1c(C)[nH]c(C(=O)C(C)N2CCN(c3ccccc3O)CC2)c1C (configuration not stated) | > 10 | IC50 (HEPG2TOX_HILL_SLOPE 6.06, HEPG2TOX_R_SQUARED 0.507, PBLUC_HILL_SLOPE 4.15, PBLUC_R_SQUARED 0.577, read-out: LUCIFERASE INFECTION ASSAY - IC50): 7.31 µM
CCN(CC)CCNC(=O)c1c(C)oc2c1C(=O)c1ccccc1C2=O | 1.15 | IC50 (HEPG2TOX_HILL_SLOPE 5.67, HEPG2TOX_R_SQUARED 0.985, PBLUC_HILL_SLOPE 0.945, PBLUC_R_SQUARED 0.645, read-out: LUCIFERASE INFECTION ASSAY - IC50): 0.112 µM
